Molecules are shown by their SMILES.

Chain of p300 HAT domain (residues 1287-1666) (Q09472 1287-1666): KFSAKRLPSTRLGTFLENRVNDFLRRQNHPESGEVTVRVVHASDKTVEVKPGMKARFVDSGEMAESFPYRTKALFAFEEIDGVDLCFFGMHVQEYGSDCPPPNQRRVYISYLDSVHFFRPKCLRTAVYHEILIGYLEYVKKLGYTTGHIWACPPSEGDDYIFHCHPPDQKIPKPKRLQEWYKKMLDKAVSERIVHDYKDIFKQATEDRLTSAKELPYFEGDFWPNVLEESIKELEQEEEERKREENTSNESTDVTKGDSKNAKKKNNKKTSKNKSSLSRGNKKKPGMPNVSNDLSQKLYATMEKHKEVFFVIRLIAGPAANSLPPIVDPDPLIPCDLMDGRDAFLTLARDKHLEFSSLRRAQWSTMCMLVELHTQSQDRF

The assay addresses p300 HAT domain (residues 1287-1666) (Homo sapiens (Human), UniProt Q09472). Description: p300 HAT SPA assay (scintillation proximity assay, acetylation of biotinylated H3(1-21) peptide). The format is biochemical. Conditions: p300 HAT domain; average of at least 2 replicate titrations; read-out: P300 HAT SPA IC50. The method, then:
In a typical experiment the p300 HAT inhibitory activity of the compounds described herein was determined in accordance with the following experimental method.
The expressed protein was purified by Ni2+ affinity, followed by anion exchange chromatography. Appropriate fractions were pooled and buffer exchanged into 20 mM Hepes pH 7.5, 150 mM NaCl, and 1 mM TCEP.
35 μL of the reaction volume was transferred to a 384-well streptavidin FlashPlate (PerkinElmer) using a Bravo liquid handler (Velocity 11) and incubated for 1.5 hr at RT. […] Data were analyzed in Genedata to determine inhibitor IC50 values.
In general terms: Scintillation proximity formats need no separation of bound from free tracer.
One may read the IC50 as the concentration that inhibits the measured activity by half. As to `Cn1cc(-c2ccc3c(C(=O)C(NCCc4ccc(C(N)=O)cc4Cl)c4ccccc4)c[nH]c3c2)cn1` (racemic) [143 racemic, 3-chloro-4-(2-((2-(6-(1-methyl-1H-pyrazol-4-yl)-1H-indol-3-yl)-2-oxo-1-phenylethyl)amino)ethyl)benzamide], the IC50 turned out to be 0.266 µM.

Turning to `NS(=O)(=O)c1ccc(CCNC(C(=O)c2c[nH]c3cc(C(F)(F)F)ccc23)c2ccccc2)cc1` (single isomer, unassigned) [1 Isomer 1], the IC50 was found to be 14.1 µM.

Turning to `NS(=O)(=O)c1ccc(CCNC(C(=O)c2c[nH]c3cc(C(F)(F)F)ccc23)c2ccccc2)cc1` (single isomer, unassigned) [1 Isomer 2], the IC50 is > 30 µM.

Take `O=C(c1c[nH]c2ccccc12)C(NCCc1ccccc1Cl)c1ccccc1` (single isomer, unassigned) [3 Isomer 1]: the IC50 is > 60 µM.

As to `O=C(c1c[nH]c2ccccc12)C(NCCc1ccccc1Cl)c1ccccc1` (single isomer, unassigned) [3 Isomer 2], the IC50 came to 6.39 µM.

On to `O=C(c1c[nH]c2ccccc12)C(NCCc1cccc(Cl)c1)c1ccccc1` (single isomer, unassigned) [4 Isomer 1], for which the IC50 is > 60 µM.

On to `O=C(c1c[nH]c2ccccc12)C(NCCc1cccc(Cl)c1)c1ccccc1` (single isomer, unassigned) [4 Isomer 2], for which the IC50 turned out to be 4.4 µM.

`O=C(c1c[nH]c2ccccc12)C(NCCc1ccc(Cl)cc1)c1ccccc1` (single isomer, unassigned) [5 Isomer 1]: the IC50 was found to be 8.76 µM.

`O=C(c1c[nH]c2ccccc12)C(NCCc1ccc(Cl)cc1)c1ccccc1` (single isomer, unassigned) [5 Isomer 2]: the IC50 came out at 0.867 µM.

As for `COc1ccccc1CCNC(C(=O)c1c[nH]c2ccccc12)c1ccccc1` (single isomer, unassigned) [6 Isomer 1], the IC50 is > 60 µM.

Regarding `COc1cccc(CCNC(C(=O)c2c[nH]c3ccccc23)c2ccccc2)c1` (single isomer, unassigned) [7 Isomer 1], the IC50 was found to be 7.35 µM.

Take `COc1ccc(CCNC(C(=O)c2c[nH]c3ccccc23)c2ccccc2)cc1` (single isomer, unassigned) [8 Isomer 1]: the IC50 stood at 43.2 µM.

As for `NS(=O)(=O)c1ccc(CCNC(C(=O)c2c[nH]c3c(Cl)cccc23)c2ccccc2)cc1` (single isomer, unassigned) [15 Isomer 1], the IC50 was > 60 µM.

For `Cc1[nH]c2ccccc2c1C(=O)C(NCCc1ccc(S(N)(=O)=O)cc1)c1ccccc1` (single isomer, unassigned) [16 Isomer 1], the IC50 was found to be 49.2 µM.

As for `Cn1cc(C(=O)C(NCCc2ccc(S(N)(=O)=O)cc2)c2ccccc2)c2ccccc21` (single isomer, unassigned) [17 Isomer 1], the IC50 was 7.99 µM.

As to `Cn1cc(C(=O)C(NCCc2ccc(S(N)(=O)=O)cc2)c2ccccc2)c2ccccc21` (single isomer, unassigned) [17 Isomer 2], the IC50 was determined as 1.85 µM.

As to `O=C(c1c[nH]c2ccccc12)C(NCCN1CCOCC1)c1ccccc1` (single isomer, unassigned) [18 Isomer 1], the IC50 was > 60 µM.

In the case of `O=C(c1c[nH]c2ccccc12)C(NCCN1CCOCC1)c1ccccc1` (single isomer, unassigned) [18 Isomer 2], the IC50 is > 60 µM.

Take `O=C(c1c[nH]c2ccccc12)C(NCCc1ccc(Cl)cc1Cl)c1ccccc1` (single isomer, unassigned) [19 Isomer 1]: the IC50 is > 60 µM.

As to `O=C(c1c[nH]c2ccccc12)C(NCCc1ccc(Cl)c(Cl)c1)c1ccccc1` (single isomer, unassigned) [20 Isomer 1], the IC50 is > 60 µM.

`O=C(c1c[nH]c2ccccc12)C(NCCc1ccc(Cl)c(Cl)c1)c1ccccc1` (single isomer, unassigned) [20 Isomer 2]: the IC50 came out at 3.07 µM.

Regarding `O=C(c1c[nH]c2ccccc12)C(NCCc1ccc(C(F)(F)F)cc1)c1ccccc1` (single isomer, unassigned) [21 Isomer 2], the IC50 stood at 32.8 µM.

The values are drawn from patent US11414384B2, “P300/CBP hat inhibitors” (Constellation Pharmaceuticals, Inc., priority 2018, dated 2022).
